In PMC3701070 (PLoS ONE, 2013):

Legend:
Test in all cases: Cell growth assay
Assay type in all cases: cell-based
[1] = test system: TK-10; conditions: Homo sapiens, 72 h; TK-10, RAF WT, RAS WT, 3-day; read-out: gIC50
Procedure, shortened: (§1)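 CellTiter-Glo luminescence; reads at t = 0 and 72 h. gIC50 reported.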

[2] = test system: SNB-19; conditions: Homo sapiens, 72 h; SNB-19, RAF WT, RAS WT, 3-day; read-out: gIC50
Procedure, shortened: as §1

[3] = test system: CGTHW1; conditions: Homo sapiens, CGTH-W-1, 72 h; CGTHW1, RAF WT, RAS WT, 3-day; read-out: gIC50
Procedure, shortened: as §1

[4] = test system: UMUC-3; conditions: Homo sapiens, UMUC3, 72 h; UMUC-3, RAF WT, KRAS(G12C), 3-day; read-out: gIC50
Procedure, shortened: as §1

[5] = test system: DU-145; conditions: Homo sapiens, 72 h; DU-145, RAF WT, RAS WT, 3-day; read-out: gIC50
Procedure, shortened: as §1

[6] = test system: MALME-3M; conditions: Homo sapiens, 72 h, BRAF(V600E), RAS WT, 3-day, read-out: gIC50
Procedure, shortened: as §1

[7] = test system: T-84; conditions: Homo sapiens, T84, 72 h; T-84, RAF WT, KRAS(G13D), 3-day; read-out: gIC50
Procedure, shortened: as §1

[8] = test system: SW1417; conditions: Homo sapiens, 72 h; SW1417, BRAF(V600E), RAS WT, 3-day; read-out: gIC50
Procedure, shortened: as §1

[9] = test system: Colo704; conditions: Homo sapiens, COLO 704, 72 h; Colo704, RAF WT, RAS WT, 3-day; read-out: gIC50
Procedure, shortened: as §1

[10] = test system: SCC-13; conditions: Homo sapiens, 72 h; SCC-13, RAF WT, RAS WT, 3-day; read-out: gIC50
Procedure, shortened: as §1

[11] = test system: NCI-H226; conditions: Homo sapiens, 72 h; NCI-H226, RAF WT, RAS WT, 3-day; read-out: gIC50
Procedure, shortened: as §1

[12] = test system: BxPc3; conditions: Homo sapiens, BXPC-3, 72 h; BxPc3, RAF WT, RAS WT, 3-day; read-out: gIC50
Procedure, shortened: as §1

[13] = test system: U251; conditions: Homo sapiens, U-251, 72 h; U251, RAF WT, RAS WT, 3-day; read-out: gIC50
Procedure, shortened: as §1

CC(C)(C)c1nc(-c2cccc(NS(=O)(=O)c3c(F)cccc3F)c2F)c(-c2ccnc(N)n2)s1 [dabrafenib] showed an IC50 [1] of over 10 µM, an IC50 [2] of over 10 µM and an IC50 [3] of over 10 µM. It also gave an IC50 [4] of over 10 µM, an IC50 [5] of over 10 µM and an IC50 [6] of 0.001 µM. For the same compound, the IC50 [7] was over 10 µM, the IC50 [8] was 0.158 µM and the IC50 [9] was over 10 µM. It also gave an IC50 [10] of over 10 µM, an IC50 [11] of over 10 µM and an IC50 [12] of over 10 µM. For the same compound, the IC50 [13] was over 10 µM.
